{
  "source": "patent US20250076286A1",
  "about": "“GENERATION OF NEURAL ORGANIZER ORGANOIDS AND MIDLINE ASSEMBLOIDS FROM HUMAN PLURIPOTENT STEM CELLS” (The Board of Trustees of the Leland Stanford Junior …, priority 2022, published 2025)",
  "assay_type_in_all_cases": "cell-based, human",
  "key": {"[1]": {"tested_on": "hiPSC cell-derived floor plate organoids (hFpO)", "experiment": "Quantification of FOXA2 positive floor plate cells by immunofluorescence microscopy", "details": "hFpO induced with 5 μM SAG day 1 to day 6 plus dual SMAD inhibitors, EGF, FGF2, RA; controls without SAG showed no induction", "description": "For the generation of 3D floor plate organoids, hiPSC cells were incubated with Accutase® (Innovative Cell Technologies, AT104) at 37° C. for 7 min and dissociated into single cells. To obtain uniformly sized organoids, AggreWell-800 (STEMCELL Technologies, 34815) containing 300 microwells was used. Approximately 3×10^6 single cells were added per AggreWell-800 well in Essential 8 medium supplemented with the ROCK inhibitor Y27632 (10 mM, Selleckchem, S1049), centrifuged at 100 g for 3 min to capture the cells in the microwells, and incubated at 37° C. with 5% CO2. After 24 h, organoids consisting of approximately 10,000 cells were collected from each microwell by pipetting medium in the well up and down with a cut P1000 pipet tip and transferred into ultra-low attachment plastic dishes (Corning, 3262) in 20% knockout serum medium (KOSR) supplemented with two SMAD pathway inhibitors dorsomorphin (2.5 mM, Sigma-Aldrich, P5499) and SB-431542 (10 mM, R&D Systems, 1614) for the first 5 days.\nFor floor plate induction: SAG, FGF2, and retinoic acid was added to the medium starting on day 1 and CHIR was added to the media beginning on day 2 until day 7. The 20% KOSR medium was changed every day and supplemented with the respective small molecules and growth factors (FIG. 1). […]"}, "[2]": {"tested_on": "hFpO-hNtO midline assembloids", "experiment": "hFpO-induced ventralization of hNtO in midline assembloids (immunofluorescence staining)", "description": "Cryoprotection and immunofluorescence staining. hFpO, hNtO and midline assembloids were fixed in 4% paraformaldehyde (PFA)/phosphate buffered saline (PBS) for 1-2 hours on a rocker at 4° C. They were then washed in PBS and transferred to 30% sucrose/PBS overnight until the organoids/assembloids sink in the solution. Subsequently, they were rinsed in optimal cutting temperature (OCT) compound (Tissue-Tek OCT Compound 4583, Sakura Finetek) and embedded. For immunofluorescence staining, 20 μm-thick sections were cut using a Leica Cryostat (Leica, CM1850). Cryosections were blocked in 0.3% Triton X-100 (Millipore Sigma, T9284-100ML), 1% BSA diluted in PBS for 1 h at room temperature. The sections were then incubated overnight at 4° C. with primary antibodies diluted in PBS containing 1% BSA, 0.1% Triton X-100. Samples were then rinsed 3× and incubated for 30 minutes in 1% BSA, 0.1% Triton X-100. Cryosections were then incubated with secondary antibodies in block 1 h. The following primary antibodies were used for staining: anti-FOXA2 (rabbit, Abcam), anti-NKX2.2 (mouse, DSHB, sc-517261), anti-NKX6.1 (mouse, DSHB), LMX1A (rabbit, HPA030088, Atlas antibodies), TFAP2A. Alexa Fluor dyes (Life Technologies) were used at 1:1000 dilution, and nuclei were visualized with Hoechst 33258 (Life Technologies, H3549). Cryosections were mounted for microscopy on glass slides using Aquamount (Polysciences, 18606), and imaged on a Zeiss M1 Axioscope or EVOS microscope. Images were processed in Fiji (NIH).\nGeneration of neural tube organoids or organoids (hNtO) and midline assembloids (hNtO-hFpO). To generate hNtO, organoids were generated using the Aggrewell method previously described. The 20% KOSR medium was changed every day and supplemented with dorsomorphin and SB-431542 for 5 Days. On day 6 in suspension, the organoids were transferred to 20% KOSR supplemented with EGF, FGF2, CHIR and retinoic acid. On day 7, hNtO were dissociated and seeded as previously described in ultra-low attachment 96 well plates. […]"}, "[3]": {"tested_on": "dorsal interneuron axon extension in dhSpOs", "experiment": "Axon extension response of dhSpO dorsal interneurons to purified FP-secreted proteins", "details": "for sensitivity to repulsive axon guidance cue / chemorepulsion: ROBO3 KO neurites", "description": "Differentiation of dorsal human spinal organoids (hSpO) and midline assembloids (dhSpO-hFpO-dhSpO) to study crossing of commissural projections. Aggregates of hiPSC cells were generated and collected as previously described in hFpO and hNtO protocols and transferred to poly-HEMA coated 10 cm dishes in Essential 6 medium (Thermo Fisher Scientific, A1516401) supplemented with two SMAD pathway inhibitors-dorsomorphin (2.5 mM, Sigma-Aldrich, P5499) and SB-431542 (10 mM, R&D Systems, 1614). For the first 5 d, Essential 6 medium was changed every day and supplemented with dorsomorphin and SB-431542. To generate hSpO, on day 6 in suspension the organoids were transferred to neural medium containing Neurobasal™-A Medium (Thermo Fisher Scientific, 10888022), B-27™ Supplement, minus vitamin A (Thermo Fisher Scientific, 12587010), GlutaMAX™ Supplement (1:100, Thermo Fisher Scientific, 35050079), Penicillin-Streptomycin (1:100, Thermo Fisher Scientific, 15070063), and supplemented with EGF, CHIR and RA. From day 19, to promote differentiation of the neural progenitors into neurons, the neural medium was supplemented with brain-derived neurotrophic factor (BDNF; 20 ng/ml, PeproTech, 450-02), IGF, AA, and 5′-cyclic monophosphate sodium salt (cAMP; 100 mM, Millipore Sigma, D0627). From this point on medium was changed every other day.\nTo validate the functionality of floor plate mechanisms that coordinate midline crossing, =isogenic KO hiPS cell lines targeting ROBO3 (an essential gene for midline crossing) with the CRISPR/Cas9 system were generated. Three sgRNAs targeting an early exon of a specific gene were designed and synthesized by Synthego to induce one deletion. Human iPSCs were dissociated with accutase and 0.5 million cells were mixed with 300 pmol sgRNAs and 40 pmol Cas9 protein (Synthego, SpCas9 2NLS Nuclease ([…])). Nucleofection was performed using the P3 Primary Cell 4D-NucleofectorTMX Kit L (Lonza, V4XP-3032), a 4D-nucleofector core unit and the X unit (Lonza) (program CA-137). […]"}, "[4]": {"details": "cyclopamine added the same day of fusion and in subsequent feeds, hFpO-hNtO assembloid"}},
  "data": [
    {"molecule": "CNC1CCC(N(Cc2cccc(-c3ccncc3)c2)C(=O)c2sc3ccccc3c2Cl)CC1", "note": "(stereo not shown) [SAG]", "values": [
      {"measurement": "percent of positive floor plate cells (FOXA2 marker)", "setting": "[1]", "value": "90-99%"}
    ]},
    {"molecule": "CC1=C2C[C@H]3[C@@H](CC=C4C[C@@H](O)CC[C@@]43C)[C@@H]2CC[C@]12O[C@@H]1C[C@H](C)CN[C@H]1[C@H]2C", "note": "[cyclopamine]", "values": [
      {"measurement": "FOXA2 expression in hFpO", "setting": "[2]; [4]", "value": "abolished"},
      {"measurement": "NKX2.2 induction in hNtO", "setting": "[2]; [4]", "value": "abolished"},
      {"measurement": "hFpO induced ventralization (NKX2.2, FOXA2, NKX6.1)", "setting": "[2]; in the presence of cyclopamine, FIG. 5E-G", "value": "completely abolished"}
    ]},
    {"molecule": "SLIT-2: repulsive axon guidance cue, purified FP-secreted protein (protein, UniProt O94813 31-1529, looked up) Slit homolog 2 protein: QCSCSGSTVDCHGLALRSVPRNIPRNTERLDLNGNNITRITKTDFAGLRHLRVLQLMENKISTIERGAFQDLKELERLRLNRNHLQLFPELLFLGTAKLYRLDLSENQIQAIPRKAFRGAVDIKNLQLDYNQISCIEDGAFRALRDLEVLTLNNNNITRLSVASFNHMPKLRTFRLHSNNLYCDCHLAWLSDWLRQRPRVGLYTQCMGPSHLRGHNVAEVQKREFVCSGHQSFMAPSCSVLHCPAACTCSNNIVDCRGKGLTEIPTNLPETITEIRLEQNTIKVIPPGAFSPYKKLRRIDLSNNQISELAPDAFQGLRSLNSLVLYGNKITELPKSLFEGLFSLQLLLLNANKINCLRVDAFQDLHNLNLLSLYDNKLQTIAKGTFSPLRAIQTMHLAQNPFICDCHLKWLADYLHTNPIETSGARCTSPRRLANKRIGQIKSKKFRCSAKEQYFIPGTEDYRSKLSGDCFADLACPEKCRCEGTTVDCSNQKLNKIPEHIPQYTAELRLNNNEFTVLEATGIFKKLPQLRKINFSNNKITDIEEGAFEGASGVNEILLTSNRLENVQHKMFKGLESLKTLMLRSNRITCVGNDSFIGLSSVRLLSLYDNQITTVAPGAFDTLHSLSTLNLLANPFNCNCYLAWLGEWLRKKRIVTGNPRCQKPYFLKEIPIQDVAIQDFTCDDGNDDNSCSPLSRCPTECTCLDTVVRCSNKGLKVLPKGIPRDVTELYLDGNQFTLVPKELSNYKHLTLIDLSNNRISTLSNQSFSNMTQLLTLILSYNRLRCIPPRTFDGLKSLRLLSLHGNDISVVPEGAFNDLSALSHLAIGANPLYCDCNMQWLSDWVKSEYKEPGIARCAGPGEMADKLLLTTPSKKFTCQGPVDVNILAKCNPCLSNPCKNDGTCNSDPVDFYRCTCPYGFKGQDCDVPIHACISNPCKHGGTCHLKEGEEDGFWCICADGFEGENCEVNVDDCEDNDCENNSTCVDGINNYTCLCPPEYTGELCEEKLDFCAQDLNPCQHDSKCILTPKGFKCDCTPGYVGEHCDIDFDDCQDNKCKNGAHCTDAVNGYTCICPEGYSGLFCEFSPPMVLPRTSPCDNFDCQNGAQCIVRINEPICQCLPGYQGEKCEKLVSVNFINKESYLQIPSAKVRPQTNITLQIATDEDSGILLYKGDKDHIAVELYRGRVRASYDTGSHPASAIYSVETINDGNFHIVELLALDQSLSLSVDGGNPKIITNLSKQSTLNFDSPLYVGGMPGKSNVASLRQAPGQNGTSFHGCIRNLYINSELQDFQKVPMQTGILPGCEPCHKKVCAHGTCQPSSQAGFTCECQEGWMGPLCDQRTNDPCLGNKCVHGTCLPINAFSYSCKCLEGHGGVLCDEEEDLFNPCQAIKCKHGKCRLSGLGQPYCECSSGYTGDSCDREISCRGERIRDYYQKQQGYAACQTTKKVSRLECRGGCAGGQCCGPLRSKRRKYSFECTDGSSFVDEVEKVVKCGCTRCVS", "values": [
      {"measurement": "sensitivity to repulsive axon guidance cue / chemorepulsion", "setting": "[3]", "value": "increased sensitivity and chemorepulsion"},
      {"measurement": "sensitivity to repulsive axon guidance cue / chemorepulsion", "setting": "[3]; listed as Slit-2", "value": "Increased sensitivity"},
      {"measurement": "sensitivity to repulsive axon guidance cue", "setting": "[3]; wildtype dorsal interneurons", "value": "largely insensitive"}
    ]}
  ]
}
